Measurements taken from patent publication US12077555B2, “STAT degraders and uses thereof” (Kymera Therapeutics, Inc., priority 2019, dated 2024).

What follows are compounds tested against STAT3 (Homo sapiens, UniProt P40763) (assay: STAT3 HiBiT degradation assay in transfected A549 cells). Settings: A549, 24 h; read-out: STAT3 HiBiT A549 degradation 24 h: Average external-Abs DC50.
Format: cell-based
Set-up: expressed in transfected cells; host or cells: A549
Procedure: Compound preparation and Cell seeding: The transfected A549 cells were harvested from dish into cell culture medium and cell numbers counted. Cells were diluted with culture medium to the desired density and 30 μL of cell suspension (about 2000 cells/well) were added into each well of a 384-well cell culture plate as designated and transferred into 37° C. 5% CO2 incubator for 24 h. Compounds were dissolved to 10 mM stock solution and 12 μL of the stock solution was transferred to a 384 LDV-plate. 3 fold, 10-point dilution was performed by transferring 4 μL compound into 8 μL DMSO using a TECAN (EVO200) liquid handler. 30 μL of diluted compound from compound source plate was transferred into the cell plate as designated by using Echo550 and transferred into 37° C. 5% CO2 incubator for 24 h.
Detection: Plates were removed from incubators and equilibrated at room temperature for 15 minutes. Nano-Glo Hibit Lytic Detection reagent (Promega Cat #N3040) was thawed and equilibrated to room temperature before the experiment. 30 μL of Nano-Glo Hibit Lytic Detection reagent was added into each well to be detected. The plates were held at room temperature for 10 min followed by reading on EnSpire.
Data analysis: The remaining activity was calculated following the formula: Remaining Activity (%)=100%×(Lumsample−LumNC)/(LumPC−LumNC). Calculate the IC50 by fitting the curve using Xlfit (v5.3.1.3), equation 201: fit=(A+((B−A)/(1+((x/C)^D)))); A: Bottom; B: Top; C: IC50; and D: Slope.
The letter codes for STAT3 DC50 include: A (<0.01 μM), B (0.01-0.1 μM), C (0.1-1.0 μM), and D (>1.0 μM).

Chain of STAT3 (P40763 whole entry): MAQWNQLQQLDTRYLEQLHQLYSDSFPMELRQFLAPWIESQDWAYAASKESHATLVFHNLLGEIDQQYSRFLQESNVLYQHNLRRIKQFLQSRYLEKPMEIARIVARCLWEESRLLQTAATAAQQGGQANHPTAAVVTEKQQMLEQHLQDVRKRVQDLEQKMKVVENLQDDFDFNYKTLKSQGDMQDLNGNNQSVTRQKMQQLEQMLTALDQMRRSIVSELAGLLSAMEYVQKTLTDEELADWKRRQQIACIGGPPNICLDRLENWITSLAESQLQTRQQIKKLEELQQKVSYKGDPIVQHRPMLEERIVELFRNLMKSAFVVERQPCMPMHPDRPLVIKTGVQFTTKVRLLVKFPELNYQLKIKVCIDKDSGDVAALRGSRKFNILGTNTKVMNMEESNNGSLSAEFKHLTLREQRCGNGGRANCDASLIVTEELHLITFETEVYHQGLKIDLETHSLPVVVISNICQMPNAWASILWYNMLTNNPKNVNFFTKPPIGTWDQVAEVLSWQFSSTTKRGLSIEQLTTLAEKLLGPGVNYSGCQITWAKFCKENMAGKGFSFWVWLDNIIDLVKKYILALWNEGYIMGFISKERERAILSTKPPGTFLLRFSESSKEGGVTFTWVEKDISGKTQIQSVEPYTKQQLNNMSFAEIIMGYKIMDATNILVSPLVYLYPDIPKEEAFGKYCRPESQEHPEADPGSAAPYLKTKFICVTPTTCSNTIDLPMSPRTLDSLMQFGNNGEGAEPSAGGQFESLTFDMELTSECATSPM

| Compound | DC50 |
| --- | --- |
| C/C(=C\C(=O)N[C@H]1CCc2cccc3c2N(C1=O)[C@H](C(=O)N[C@@H](CCC(N)=O)[C@@H](C)OCc1ccc(CCCCC(=O)N[C@H](C(=O)N2C[C@@H](O)C[C@H]2C(=O)NCc2ccc(-c4scnc4C)cc2)C(C)(C)C)cc1)C3)c1ccc(C(F)(F)P(=O)(O)O)cc1 [Compound I-119] | > 1 µM |
| Cc1ncsc1-c1ccc(CNC(=O)[C@@H]2C[C@H](O)CN2C(=O)[C@@H](NC(=O)CCCCc2ccc(CO[C@H](C)[C@H](CCC(N)=O)NC(=O)[C@@H]3Cc4cccc5c4N3C(=O)[C@@H](NC(=O)c3cc4cc(C(=O)P(=O)(O)O)ccc4[nH]3)CC5)cc2)C(C)(C)C)cc1 [Compound I-121, diammonium 2-[[(2S,11S)-2-[[(3S,4R)-1-carbamoyl-4-[[4-(4-[[(2S)-1-[(2S,4S)-4-hydroxy-2-([[4-(4-methyl-1,3-thiazol-5-yl)phenyl]methyl]carbamoyl)pyrrolidin-1-yl]-3,3-dimethyl-1-oxobutan-2-yl]carbamoyl]butyl)phenyl]methoxy]pentan-3-yl]carbamoyl]-12-oxo-1-azatricyclo[6.4.1.0^[4,13]]trideca-4(13),5,7-trien-11-yl]carbamoyl]-1H-indole-5-carbonylphosphonate] | > 1 µM |
| Cn1c(=O)n(C2CCC(=O)NC2=O)c2cccc(CCCC(=O)N3CC[C@H]4CC[C@@H](C(=O)N[C@@H](CCC(N)=O)C(=O)NC(c5ccccc5)c5ccccc5)N4C(=O)[C@@H](NC(=O)c4cc5cc(C(=O)P(=O)(O)O)ccc5[nH]4)C3)c21 (stereo partly drawn) [Compound I-122, 2-[[(5S,8S,10aR)-8-[[(1S)-3-carbamoyl-1-(diphenylmethylcarbamoyl)propyL]carbamoyl]-3-[4-[1-(2,6-dioxopiperidin-3-yl)-3-methyl-2-oxo-1,3-benzodiazol-4-yl]butanoyl]-6-oxo-octahydropyrrolo[1,2-a][1,5]diazocin-5-yl]carbamoyl]-1H-indole-5-carbonylphosphonic acid] | > 1 µM |
| Cn1c(=O)n(C2CCC(=O)NC2=O)c2cccc(CCCCCC(=O)N3CC[C@H]4CC[C@@H](C(=O)N[C@@H](CCC(N)=O)C(=O)NC(c5ccccc5)c5ccccc5)N4C(=O)[C@@H](NC(=O)c4cc5cc(C(=O)P(=O)(O)O)ccc5[nH]4)C3)c21 (stereo partly drawn) [Compound I-123, 2-[[(5S,8S,10aR)-8-[[(1S)-3-carbamoyl-1-(diphenylmethylcarbamoyl)propyl]carbamoyl]-3-[6-[1-(2,6-dioxopiperidin-3-yl)-3-methyl-2-oxo-1,3-benzodiazol-4-yl]hexanoyl]-6-oxo-octahydropyrrolo[1,2-a][1,5]diazocin-5-yl]carbamoyl]-1H-indole-5-carbonylphosphonic acid] | > 1 µM |
| Cn1c(=O)n(C2CCC(=O)NC2=O)c2cccc(CCCCCCC(=O)N3CC[C@H]4CC[C@@H](C(=O)N[C@@H](CCC(N)=O)C(=O)NC(c5ccccc5)c5ccccc5)N4C(=O)[C@@H](NC(=O)c4cc5cc(C(=O)P(=O)(O)O)ccc5[nH]4)C3)c21 (stereo partly drawn) [Compound I-124, 2-[[(5S,8S,10aR)-8-[[(1S)-3-carbamoyl-1-(diphenylmethylcarbamoyl)propyl]carbamoyl]-3-[7-[1-(2,6-dioxopiperidin-3-yl)-3-methyl-2-oxo-1,3-benzodiazol-4-yl]heptanoyl]-6-oxo-octahydropyrrolo[1,2-a][1,5]diazocin-5-yl]carbamoyl]-1H-indole-5-carbonylphosphonic acid] | > 1 µM |

Same assay, conditions: read-out: STAT3 HiBiT A549 degradation 24 h: Average external-Abs DC50; A549, 24 h

| Compound | DC50 |
| --- | --- |
| CN1C(=O)CCC(N2Cc3c(C#CCCCCCC(=O)N4CC[C@H]5CC[C@@H](C(=O)N[C@@H](CCC(N)=O)C(=O)NC(c6ccccc6)c6ccccc6)N5C(=O)[C@@H](NC(=O)c5cc6cc(C(=O)P(=O)(O)O)ccc6[nH]5)C4)cccc3C2=O)C1=O (stereo in doubt) [Compound I-120, diammonium 2-[[(5S,8S,10aR)-8-[[(1S)-3-carbamoyl-1-(diphenylmethylcarbamoyl)propyl]carbamoyl]-3-[8-[2-(1-methyl-2,6-dioxopiperidin-3-yl)-1-oxo-3H-isoindol-4-yl]oct-7-ynoyl]-6-oxo-octahydropyrrolo[1,2-a][1,5]diazocin-5-yl]carbamoyl]-1H-indole-5-carbonylphosphonate] | > 1 µM |
